From PMC9181982, “Biphenyl Ether Analogs Containing Pomalidomide as Small-Molecule Inhibitors of the Programmed Cell Death-1/Programmed Cell Death-Ligand 1 Interaction” (Molecules, 2022) come the findings set out here.

“Also recorded” adds a separate entry of the source.

One may read the IC50 as the point on the concentration scale where inhibition reaches its midpoint. High values mean weaker potency, low ones greater potency.

One assay concerns the target T1, PD-L1 protein (Homo sapiens, UniProt Q9NZQ7).
T1 construct: PD-L1 gene (amino acids 18–239); made in house; host or cells: E. coli BL21
The assay is described as follows: 1H NMR binding analysis, PD-L1 protein titrated with ligand. Conditions: for Protein precipitation during NMR titration: 1H NMR titration, compound 6 at protein–ligand ratio 1:10; for Binding to PD-L1 by 1H NMR titration: PBS pH 7.4, 300 K, protein–ligand ratios up to 1:10. How it is done:
Apart from the HTRF assay, we performed the NMR [33, 34] binding analysis by recording the ^1H spectrum of the PD-L1 protein titrated with compound 4 (Figure 1).
The E. coli strain BL21 was transformed with a pET-21b plasmid carrying the PD-L1 gene (amino acids 18–239). The bacteria were cultured in LB at 37 °C until OD600nm of 0, 6 when the recombinant protein production was induced with 1 mM IPTG. The protein production continued overnight. The inclusion bodies were collected by centrifugation, washed twice with 50 mM Tris HCl, pH 8.0, containing 200 mM NaCl, 10 mM EDTA, 10 mM 2-mercaptoethanol, and 0.5% Triton X-100, followed by a single wash with the same buffer but with no Triton X-100. The washed inclusion bodies were resuspended overnight in 50 mM Tris HCl, pH 8.0, 6 M GuHCl, 200 mM NaCl, and 10 mM 2-mercaptoethanol and clarified with centrifugation. Refolding of PD-L1 was performed by dropwise dilution into 0.1 M Tris HCl, pH 8.0, containing 1 M L-arginine hydrochloride, 0.25 mM oxidized glutathione, and 0.25 mM reduced glutathione. The refolded protein was dialyzed three times against 10 mM Tris HCl, pH 8.0, containing 20 mM NaCl and purified by size exclusion chromatography using Superdex 75 and a dialysis buffer. The quality of the refolded protein was evaluated by SDS-PAGE and NMR.
NMR spectra were recorded in PBS, pH 7.4, containing 10% (v/v) of D2O added to the samples to provide the lock signal. Water suppression was carried out using the WATERGATE sequence. All the spectra were recorded at 300 K using a Bruker Avance 600 MHz spectrometer with the Cryo-Platform. The NMR spectrum was recorded at three different ligand/protein ratios from 0 to 10. The samples were prepared by adding small amounts of a 50 mM ligand stock solution in DMSO to the protein solution (0.20 mL) of the PD-L1 fragment at a concentration of 0.14 mM. The acquisition parameters for each spectrum were as follows: size of FID32768, number of scans: 32. The spectra were visualized using TopSpin 4.0.2. (Bruker, Billerica, MA, USA)

Another assay has as its target T2, PD-1/PD-L1 complex (Homo sapiens, UniProt Q9NZQ7).
T2 construct: purchased Cis-Bio
As to the kind of experiment: HTRF (homogeneous time-resolved fluorescence) PD-1/PD-L1 binding assay (Cis-Bio). Conditions: for inhibition at 0.5 µM: 0.5 µM ligand, read-out: HTRF: Percentage of the Dissociated PD-1/PD-L1 Complex, 0.5 µM Ligand Conc.; for inhibition at 0.5 µM / inhibition at 5 µM: 5 nM hPD-L1, 50 nM hPD-1; for inhibition at 5 µM: 5 µM ligand, read-out: HTRF: Percentage of the Dissociated PD-1/PD-L1 Complex, 5 µM Ligand Conc.; for IC50: six ligand concentrations, two dilution series. As to the method:
To validate the activity toward PD-L1 of our compounds, we carried out an HTRF (homogeneous time-resolved fluorescence) experiment at two concentrations of the ligand (5 µM and 0.5 µM) (Table 1).
HTRF was carried out using a certified Cis-Bio assay according to the manufacturer’s guidelines. The experiments were carried out at 5 nM of h-L1 and 50 nM of hPD-1 in the final formulation at the 20 µL final volume in the well. To determine the half maximal inhibitory concentrations (IC50) of the tested compounds, the measurements were carried out on two individual dilution series unless stated otherwise. After mixing all the components according to the Cis-Bio protocol, the plate was left for 2 h incubation at room temperature followed by the TR-FRET measurement on a Tecan Spark 20M. […] The collected data was background-subtracted from the negative control, normalized on the positive control, averaged, and fitted with the normalized Hill’s equation to determine the IC50 value using Mathematica 12 (Princeton, NJ, USA).

In assay [1] the test system is PD-1/PD-L1 blockade, Jurkat effector cells / CHO/TCRAct/PD-L1 cells. As to the kind of experiment: Immune checkpoint blockade (ICB) assay (Promega): Jurkat ECs co-cultured with CHO/TCRAct/PD-L1 cells, NFAT luciferase readout. Format: cell-based, human. The conditions noted are these: for Activation of Jurkat ECs compared with BMS-1166: 5 µM, p < 0.001 vs BMS-1166; for Activation of Jurkat ECs in the ICB assay: 6 h co-culture, fold induction vs control; for Promega Assay (active / not active): cell-based PD-1/PD-L1 blockade bioassay. As to the method: In order to explore the bioactivity of the synthesized compounds, a well-recognized immune checkpoint blockade (ICB) assay was performed. In the assay, artificial T cells, the Jurkat effector cells (Jurkat ECs), i.e., the Jurkat T cells overexpressing PD-1 and luciferase-coding gene under the control of the TCR-inducible NFAT response element, are contacted with artificial antigen-presenting CHO/TCRAct/PD-L1 cells, as illustrated in [31]. The latter is the CHO cells equipped with the TCR activator molecule, which delivers activation of Jurkat ECs, and also the PD-L1 protein, which provides a negative signal towards the activation of Jurkat ECs. Upon the blockade of the PD-1/PD-L1 interaction, activation of Jurkat ECs is increased, as we have shown before for several classes of therapeutic antibodies and small molecules.
The human PD-L1-expressing CHO-K1 cells overexpressing TCR activator (CHO/TCRAct/PD-L1) cells and Jurkat ECs T cells overexpressing PD-1 and carrying a luciferase reporter gene under the control of the Nuclear Factor of Activated T cells Response Element (NFAT-RE) were obtained from Promega and cultured in an RPMI-1640 medium (Biowest, Nuaillé, France) supplemented with 10% fetal bovine serum (FBS, Biowest, Nuaillé, France) and […] L-glutamine (Biowest, Nuaillé, France). G418 (250 µg/mL, InvivoGen, San Diego, CA, USA) and Hygromycin B Gold (50 µg/mL, InvivoGen, San Diego, CA, USA) were also added to the culture medium as selection antibiotics. CAKI 2, LNCap, PC-3, and MDA-MB-231 cells were purchased from the European Collection of Authenticated Cell Cultures (ECACC) and cultured according to the provided protocol.
For the analysis of biological activity of the analyzed compounds, an immune checkpoint blockade (ICB) assay was performed. For this, the culture of Jurkat effector cells (Jurkat-ECs) and […] was carried out. The assay was performed according to the protocol described in our previous works. All the experiments were performed three times as independent experiments.
Figure 2 Bioactivity of the indicated compounds. (A,B) The activity was monitored with a cell-based immune checkpoint blockade (ICB) assay. Jurkat ECs were contacted with pre-seeded CHO/TCRAct/PD-L1 cells in the presence of the indicated concentrations of the compounds (A) or durvalumab (B) as a positive control. The cells were co-cultured for 6 h and the luminescence signal was measured following the addition of the Bio-Glo substrate. The graphs show fold induction calculated versus either DMSO-treated (for small molecules) or untreated (for durvalumab) control (ctrl) cells. The results are mean ± SD from three independent experiments. […] (C) Analysis of the expression of PD-L1 in four human cancer cell lines compared to PD-L1-overexpressing CHO/TCRAct/PD-L1 cells. (D) Analysis of the expression of PD-L1 in MDA-MB-231 cells treated with either 4 or 5 compounds for 6 or 24 h.

T1 sequence (Q9NZQ7 18-239): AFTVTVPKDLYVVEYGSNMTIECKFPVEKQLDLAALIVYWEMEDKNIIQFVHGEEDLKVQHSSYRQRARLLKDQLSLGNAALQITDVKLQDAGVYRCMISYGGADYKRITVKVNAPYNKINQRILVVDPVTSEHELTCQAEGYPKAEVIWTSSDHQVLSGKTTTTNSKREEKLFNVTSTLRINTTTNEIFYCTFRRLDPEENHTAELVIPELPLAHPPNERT
T2 sequence (Q9NZQ7 19-238 limits assumed, one chain of several): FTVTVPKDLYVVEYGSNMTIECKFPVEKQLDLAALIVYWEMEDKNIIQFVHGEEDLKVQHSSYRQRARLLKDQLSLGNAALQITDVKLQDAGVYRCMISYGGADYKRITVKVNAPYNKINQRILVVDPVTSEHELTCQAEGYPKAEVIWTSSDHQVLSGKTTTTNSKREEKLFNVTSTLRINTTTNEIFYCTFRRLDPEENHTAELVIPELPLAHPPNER

For `COc1nc(OCc2cccc(-c3ccccc3)c2C)ccc1CNCCCNc1cccc2c1C(=O)N(C1CCC(=O)NC1=O)C2=O` (stereo not shown) [compound 5, 2-(2,6-dioxopiperidin-3-yl)-4-((3-(((2-methoxy-6-((2-methyl-[1,1′-biphenyl]-3-yl)methoxy)pyridin-3-yl)methyl)amino)propyl)amino)isoindoline-1,3-dione], at PD-L1 protein, the “Protein precipitation during NMR titration” value is “not observed” and the “Binding to PD-L1 by 1H NMR titration” value is given as “bind to the PD-L1 protein”. In addition, at PD-1/PD-L1 complex, the inhibition at 0.5 µM worked out at 66.3%, the inhibition at 5 µM turned out to be 100% and the IC50 is 640 ± 20 nM. In addition, in assay [1], the “Activation of Jurkat ECs compared with BMS-1166” value is given as “significantly higher levels of the activation of Jurkat ECs”, the “Activation of Jurkat ECs in the ICB assay” value was “able to increase the activation of Jurkat ECs; also recorded: significantly restore the repressed immunity” and the “Promega Assay (active / not active)” value is “Active”.

Consider `COc1nc(OCc2cccc(-c3ccccc3)c2C)ccc1CNCC1CCN(CC(=O)Nc2cccc3c2C(=O)N(C2CCC(=O)NC2=O)C3=O)CC1` (stereo not shown) [compound 4, N-(2-(2,6-dioxopiperidin-3-yl)-1,3-dioxoisoindolin-4-yl)-2-(4-((((2-methoxy-6-((2-methyl-[1,1′-biphenyl]-3-yl)methoxy)pyridin-3-yl)methyl)amino)methyl)piperidin-1-yl)acetamide], for which, on PD-L1 protein, the “Protein precipitation during NMR titration” value is given as “not observed” and the “Binding to PD-L1 by 1H NMR titration” value is “bind to the PD-L1 protein”. Moreover, on PD-1/PD-L1 complex, the inhibition at 0.5 µM is 18.2%, the inhibition at 5 µM turned out to be 88.8% and the IC50 amounted to 1320 ± 40 nM. Also, in assay [1], the “Activation of Jurkat ECs compared with BMS-1166” value was “significantly higher levels of the activation of Jurkat ECs”, the “Activation of Jurkat ECs in the ICB assay” value is “able to increase the activation of Jurkat ECs; also recorded: significantly restore the repressed immunity” and the “Promega Assay (active / not active)” value was “Active”.
